The compounds below were run on SARS-CoV-2 RG-2675 (South Africa) (assay: Cytopathic effect reduction, SARS-CoV-2 RG-2675 (South Africa) in Vero cells). Conditions: Severe acute respiratory syndrome coronavirus 2, Vero, read-out: Antiviral Activity (EC50) RG-2675 (South Africa).
Format: cell-based
Work on `COc1ccc(C(OC[C@H]2O[C@@H](n3ccc4nc5cc(O)ccc5n4c3=O)C[C@@H]2O)(c2ccccc2)c2ccc(OC)cc2)cc1` [Compound 3a, 2-((2R,4S,5R)-5-((bis(4-methoxyphenyl)(phenyl)methoxy)methyl)-4-hydroxytetrahydrofuran-2-yl)-7-hydroxybenzo[4,5]imidazo[1,2-c]pyrimidin-1(2H)-one] yielded an EC50 of 9.1 ± 0.62 µM. Compound `CC(C)C(=O)OC[C@H]1O[C@@H](n2ccc(NO)nc2=O)[C@H](O)[C@@H]1O` [Molnupiravir] has an EC50 of 5.18 ± 0.26 µM. `CCC(CC)COC(=O)[C@H](C)N[P@](=O)(OC[C@H]1O[C@@](C#N)(c2ccc3c(N)ncnn23)[C@H](O)[C@@H]1O)Oc1ccccc1` [Remdesivir, reference compound] was tested, and the EC50 was 1.31 ± 0.68 µM.
